# The supplement of paper PMC10307832
# How the values were obtained:
# Assay in all cases: relative viability (nuclei count vs DMSO), 5 days (fraction); higher = more cells survive
# KIN001-266 + Luminespib = compound: CCN1CCC(CC1)N2C=C(N=N2)CNC3=CC4=C(C(=CN=C4C(=C3)Cl)C#N)NC5=CC(=C(C=C5)F)Cl [KIN001-266] + CCNC(=O)c1noc(-c2cc(C(C)C)c(O)cc2O)c1-c1ccc(CN2CCOCC2)cc1 [Luminespib] (partner 0.01 µM)
# Summary of the method: (§1)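 Lung cancer cell lines were pin-tool dosed in 1536-well plates on the day after seeding, with either a lone drug or a fixed anchor-drug dose plus five library-drug doses (not always all listed) in √10 steps. Nuclei were counted on 4× images after 5 days. Relative viability is the ratio of treated-well to vehicle-well nuclei counts, with each value a median of duplicate plates.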
# KIN001-266 + Pictilisib = compound: CCN1CCC(CC1)N2C=C(N=N2)CNC3=CC4=C(C(=CN=C4C(=C3)Cl)C#N)NC5=CC(=C(C=C5)F)Cl [KIN001-266] + CS(=O)(=O)N1CCN(Cc2cc3nc(-c4cccc5[nH]ncc45)nc(N4CCOCC4)c3s2)CC1 [Pictilisib] (partner 1 µM)
# Summary of the method: as §1
# KIN001-266 + OSI-027 = compound: CCN1CCC(CC1)N2C=C(N=N2)CNC3=CC4=C(C(=CN=C4C(=C3)Cl)C#N)NC5=CC(=C(C=C5)F)Cl [KIN001-266] + COc1cccc2cc(-c3nc([C@H]4CC[C@H](C(=O)O)CC4)n4ncnc(N)c34)[nH]c12 [OSI-027] (partner 0.5 µM)
# Summary of the method: as §1
# KIN001-266 + Palbociclib = compound: CCN1CCC(CC1)N2C=C(N=N2)CNC3=CC4=C(C(=CN=C4C(=C3)Cl)C#N)NC5=CC(=C(C=C5)F)Cl [KIN001-266] + CC(=O)c1c(C)c2cnc(Nc3ccc(N4CCNCC4)cn3)nc2n(C2CCCC2)c1=O [Palbociclib] (partner 0.5 µM)
# Summary of the method: as §1
Cell Line,relative viability (KIN001-266 + Luminespib; first compound 0.08 µM),relative viability (KIN001-266 + Luminespib; first compound 0.253 µM),relative viability (KIN001-266 + Luminespib; first compound 0.8 µM),relative viability (KIN001-266 + Luminespib; first compound 2.53 µM),relative viability (KIN001-266 + Luminespib; first compound 8 µM),relative viability (KIN001-266 + Pictilisib; first compound 0.08 µM),relative viability (KIN001-266 + Pictilisib; first compound 0.253 µM),relative viability (KIN001-266 + Pictilisib; first compound 0.8 µM),relative viability (KIN001-266 + Pictilisib; first compound 2.53 µM),relative viability (KIN001-266 + Pictilisib; first compound 8 µM),relative viability (KIN001-266 + OSI-027; first compound 0.08 µM),relative viability (KIN001-266 + OSI-027; first compound 0.253 µM),relative viability (KIN001-266 + OSI-027; first compound 0.8 µM),relative viability (KIN001-266 + OSI-027; first compound 2.53 µM),relative viability (KIN001-266 + OSI-027; first compound 8 µM),relative viability (KIN001-266 + Palbociclib; first compound 0.08 µM),relative viability (KIN001-266 + Palbociclib; first compound 0.253 µM),relative viability (KIN001-266 + Palbociclib; first compound 0.8 µM),relative viability (KIN001-266 + Palbociclib; first compound 8 µM),relative viability (KIN001-266 + Palbociclib; first compound 2.53 µM)
LCLC-97TM1,0.953,0.77,0.643,0.603,0.24,0.198,0.264,0.192,0.16,0.215,0.636,0.69,0.45,0.557,0.532,0.201,0.233,0.216,0.235,–
HARA,0.704,0.718,0.395,0.878,0.307,0.515,0.466,0.507,0.444,0.291,0.559,0.644,0.395,0.501,0.276,0.237,0.27,0.261,0.18,0.237
HCC-78,–,–,–,–,–,0.234,0.193,0.174,0.253,0.259,0.34,0.39,–,0.308,0.37,0.506,0.518,0.476,0.415,0.431
NCI-H1666,0.982,0.993,1.02,0.951,0.923,0.608,0.523,0.49,0.367,0.347,0.838,0.879,0.88,0.849,0.802,0.61,0.668,0.601,0.655,0.664
NCI-H2347,0.846,0.009,0.41,0.358,0.269,0.663,0.698,0.476,0.422,0.485,0.606,0.456,0.296,0.374,0.255,0.445,0.468,0.401,0.404,0.442
NCI-H838,0.27,0.284,0.328,0.2,0.186,0.521,0.423,0.515,0.304,0.238,0.36,0.435,0.423,0.361,0.343,0.228,0.207,0.212,0.22,0.164
NCI-H2023,0.738,0.698,0.764,0.696,0.865,0.242,0.293,0.267,0.259,0.232,0.449,0.437,0.379,0.368,0.241,0.333,0.383,0.388,0.288,0.289
201T,1.05,1.05,1,1.04,1.06,0.768,0.746,0.662,0.64,0.721,0.786,0.53,0.8,0.776,0.735,0.342,0.366,0.35,0.359,0.361
NCI-H2342,0.745,0.716,0.689,0.721,0.865,–,–,–,–,–,0.607,0.626,0.564,0.708,0.754,0.52,0.518,0.471,0.575,0.597
HCC-366,–,–,–,–,–,0.132,0.114,0.107,0.154,0.156,1.14,0.977,0.936,0.826,0.412,0.425,0.371,0.302,0.403,0.407
EBC-1,–,–,–,–,–,0.416,0.519,0.553,0.576,0.329,–,–,–,–,–,–,–,–,–,–
NCI-H1648,–,–,–,–,–,–,–,–,–,–,0.28,0.256,0.273,0.257,0.273,0.298,0.277,0.277,0.261,0.281
SW 900,0.143,0.177,0.154,0.173,0.167,–,–,–,–,–,0.738,0.366,0.551,0.485,0.325,0.558,0.498,0.611,0.268,0.555
NCI-H596,0.922,1.03,1.08,1.03,0.905,0.407,0.401,0.385,0.4,0.38,0.858,0.635,0.616,0.638,0.529,–,–,–,–,–
NCI-H1563,0.496,0.498,0.534,0.602,0.524,0.662,0.636,0.636,0.656,0.677,0.794,0.745,0.875,0.758,0.756,–,–,–,–,–
NCI-H1299,–,–,–,–,–,0.98,0.754,0.893,0.75,0.424,–,–,–,–,–,–,–,–,–,–
NCI-H522,1.09,1.19,0.99,0.912,1.05,–,–,–,–,–,0.879,0.74,0.677,0.659,0.659,1.04,1.07,0.952,0.804,0.95
A549,–,–,–,–,–,0.584,0.527,0.519,0.584,0.393,–,–,–,–,–,–,–,–,–,–
IA-LM,–,–,–,–,–,0.336,0.364,0.274,0.348,0.317,–,–,–,–,–,–,–,–,–,–
Calu-6,–,–,–,–,–,0.933,0.9,1.08,0.805,0.765,–,–,–,–,–,–,–,–,–,–
